Here are results for four molecules from ChEMBL document CHEMBL1687744, “Furanone at subinhibitory concentrations enhances staphylococcal biofilm formation by luxS repression” (Antimicrob Agents Chemother, 2009).

Converted amounts (≈) assume the structure as drawn. The source made the active and inactive calls. No cut-off for these calls is given here.

The subject of series [1] is Bacillus subtilis. The experiment in a line: Antimicrobial activity against Bacillus subtilis by macrodilution method. The class given is functional.
Series [2] deals with Staphylococcus epidermidis. Kind of series: Antimicrobial activity against ica gene-deficient Staphylococcus epidermidis 1457 by macrodilution method. The class given is functional.
The subject of series [3] is Staphylococcus epidermidis. Kind of series: Antimicrobial activity against Staphylococcus epidermidis 1457 by macrodilution method. The series is classed as functional.
The subject of series [4] is Staphylococcus epidermidis. The experiment in a line: Increase in polysaccharide intercellular adhesin in Staphylococcus epidermidis 1457 at 2.5 to 20 uM by ant-PIA staining. The class given is functional, organism-based.
For series [5], the system named is Staphylococcus epidermidis. The experiment in a line: Bactericidal activity against Staphylococcus epidermidis 1457 at >10 uM after 18 hrs by CFU count assay. The class given is functional, organism-based.
Series [6] deals with Staphylococcus aureus. Kind of series: Increase in biofilm formation in Staphylococcus aureus Newman by crystal violet staining. The class given is functional, organism-based.
Series [7] relates to Staphylococcus epidermidis. Kind of series: Bactericidal activity against Staphylococcus epidermidis 1457 at >50 uM after 18 hrs by CFU count assay. The class given is functional, organism-based.
Series [8] concerns Staphylococcus aureus. The experiment in a line: Bactericidal activity against Staphylococcus aureus 113 at >10 uM after 18 hrs by CFU count assay. The class given is functional, organism-based.
Series [9] deals with Staphylococcus aureus. The experiment in a line: Increase in biofilm formation in Staphylococcus aureus Newman after 18 hrs by crystal violet staining. The series is classed as functional, organism-based.
For series [10], the system named is Staphylococcus epidermidis. The experiment in a line: Effect on agr quorum sensing system in Staphylococcus epidermidis 1457 assessed as RNA3 expression level at 2.5 to 20 uM. The series is classed as functional, organism-based.
Series [11] has as its system Staphylococcus aureus. Kind of series: Induction of biofilm formation in Staphylococcus aureus 113 after 18 hrs by crystal violet staining. The class given is functional, organism-based.
Series [12] has as its system Staphylococcus epidermidis. Kind of series: Bactericidal activity against ica gene-deficient Staphylococcus epidermidis 1457 at >10 uM after 18 hrs by CFU count assay. The series is classed as functional, organism-based.
In series [13] the test system is Staphylococcus epidermidis. Kind of series: Bactericidal activity against ica gene-deficient Staphylococcus epidermidis 047 at >10 uM after 18 hrs by CFU count assay. The class given is functional, organism-based.
Series [14] relates to Staphylococcus epidermidis. The experiment in a line: Antimicrobial activity against ica gene-deficient Staphylococcus epidermidis 047 by macrodilution method. The class given is functional.
Series [15] deals with Staphylococcus aureus. The experiment in a line: Increase in biofilm formation in agr gene-deficient Staphylococcus aureus Newman by crystal violet staining. The class given is functional, organism-based.
In series [16] the test system is Staphylococcus aureus. The experiment in a line: Antimicrobial activity against Staphylococcus aureus 113 by macrodilution method. The series is classed as functional.
In series [17] the test system is Staphylococcus epidermidis. Kind of series: Effect on biofilm formation in luxS gene-deficient Staphylococcus epidermidis 1457 at >10 uM by crystal violet staining. The series is classed as functional, organism-based.
In series [18] the test system is Staphylococcus aureus. The experiment in a line: Bactericidal activity against Staphylococcus aureus Newman at >10 uM after 18 hrs by CFU count assay. The class given is functional, organism-based.
The test system of series [19] is Staphylococcus aureus. Kind of series: Antimicrobial activity against Staphylococcus aureus Newman by macrodilution method. The series is classed as functional.
Series [20] has as its system Staphylococcus epidermidis. The experiment in a line: Antimicrobial activity against Staphylococcus epidermidis 047 by macrodilution method. The class given is functional.
Series [21] deals with Staphylococcus epidermidis. Kind of series: Induction of biofilm formation in Staphylococcus epidermidis 1457 at 0.1 times MIC to 0.2 X MIC after 18 hrs by crystal violet staining. The class given is functional, organism-based.
The test system of series [22] is Staphylococcus epidermidis. Kind of series: Reduction luxS mRNA level in Staphylococcus epidermidis 1457 at 20 uM. The class given is functional, organism-based.
The subject of series [23] is Staphylococcus epidermidis. The experiment in a line: Induction of biofilm formation in ica gene-deficient Staphylococcus epidermidis 1457 after 18 hrs by crystal violet staining. The class given is functional, organism-based.
For series [24], the system named is L929. The experiment in a line: Cytotoxicity against mouse L929 cells after 24 hrs at 28.4 +/- 8.4 uM by LDH release assay. The class given is cell-based. The following applies: l929, 24 h.
Series [25] has as its system Pseudomonas aeruginosa. The experiment in a line: Antimicrobial activity against Pseudomonas aeruginosa PAO1 by macrodilution method. The class given is functional.
Series [26] has as its system Pseudomonas aeruginosa. Kind of series: Inhibition of biofilm formation of Pseudomonas aeruginosa PAO1 at 0.322 uM to 2.58 mM. The series is classed as functional, organism-based.
Series [27] has as its system Staphylococcus epidermidis. The experiment in a line: Induction of biofilm formation in ica gene-deficient Staphylococcus epidermidis 047 after 18 hrs by crystal violet staining. The series is classed as functional, organism-based.
The subject of series [28] is Staphylococcus epidermidis. The experiment in a line: Increase in biofilm formation in Staphylococcus epidermidis 047 at 0.1 times MIC to 0.2 X MIC after 18 hrs by crystal violet staining. The class given is functional, organism-based.
In series [29] the test system is Staphylococcus epidermidis. Kind of series: Bactericidal activity against Staphylococcus epidermidis 047 at >10 uM after 18 hrs by CFU count assay. The class given is functional, organism-based.
Series [30] concerns Bacillus subtilis. The experiment in a line: Induction of biofilm formation in Bacillus subtilis after 18 hrs by crystal violet staining. The series is classed as functional, organism-based.
For series [31], the system named is Staphylococcus epidermidis. Kind of series: Induction of biofilm formation in Staphylococcus epidermidis 1457 at 1 to 100 uM after 18 hrs by crystal violet staining. The series is classed as functional, organism-based.
Series [32] relates to L929. The experiment in a line: Cytotoxicity against mouse L929 cells after 24 hrs at 18.6 +/- 12.3 uM by LDH release assay. The class given is cell-based. To be noted: l929, 24 h.
Series [33] deals with L929. The experiment in a line: Cytotoxicity against mouse L929 cells after 24 hrs at 38.35 +/- 15.0 uM by LDH release assay. The following applies: l929, 24 h. The series is classed as cell-based.
In series [34] the test system is L929. Kind of series: Cytotoxicity against mouse L929 cells after 24 hrs at 12.1 +/- 5.7 uM by LDH release assay. The series is classed as cell-based. The following applies: l929, 24 h.

As to `CCCCC1=C(Br)/C(=C/Br)OC1=O`, the minimum bactericidal concentration (MBC) against Bacillus subtilis [1] is 100 µM (≈ 31 µg/mL); in series [2], above 130 µM; in series [3] it was above 130 µM; in series [14] it was above 130 µM; with Staphylococcus aureus [16] it was above 130 µM; with Staphylococcus aureus [19] it was above 130 µM. Moreover, the MBC (in series [20]; against Pseudomonas aeruginosa [25]) was above 130 µM each time. Moreover, the MIC with Bacillus subtilis [1] was determined as 100 µM (≈ 31 µg/mL); in series [2], 65 µM (≈ 20.1 µg/mL); in [3], 50 µM (≈ 15.5 µg/mL); in series [14] it was 30 µM (≈ 9.3 µg/mL); with Staphylococcus aureus [16], 15 µM (≈ 4.65 µg/mL); with Staphylococcus aureus [19] it was 15 µM (≈ 4.65 µg/mL). In addition, the figures for the minimum inhibitory concentration (MIC) (in series [20]; in the series on Pseudomonas aeruginosa [25]) were 50 µM (≈ 15.5 µg/mL) and above 130 µM, respectively. The outcome (in series [4]; in series [5]; with Staphylococcus aureus [6]; in series [7]; in the series with Staphylococcus aureus [8]; in the series on Staphylococcus aureus [9]) was Active. Further, the outcome (in series [12]; in [13]; in the series on Staphylococcus aureus [15]; in the series with Staphylococcus aureus [18]; in series [21]; in series [22]) was Active. The outcome in [28] and in series [29] was Active. For the same molecule, the outcome (in [10]; with Staphylococcus aureus [11]; in series [17]; in series [23]; in series [27]; in the series on Bacillus subtilis [30]) was inactive. In addition, the Activity in the series on L929 [24] came to 30%. The inhibition result with Pseudomonas aeruginosa [26] is “Active”.
For the molecule `CCCC(Br)C1=C(Br)/C(=C/Br)OC1=O` (configuration not stated), in [7], the result was Active. Moreover, the outcome in series [31] was inactive. The same molecule displayed an Activity in the series with L929 [32] of 30%.
Take `C#CCOC(CCC)C1=C(Br)/C(=C/Br)OC1=O` (configuration not stated): the result in series [7] was Active. Further, the Activity in the series on L929 [33] was 30%. For the same molecule, the result in [31] was inactive.
Regarding `CCCC(OCCOCCOCCN=[N+]=[N-])C1=C(Br)/C(=C/Br)OC1=O` (configuration not stated), the Activity in the series with L929 [34] was found to be 30%. In addition, the result in series [7] was Active. The outcome in [31] was inactive.
